Test results taken from patent US11266640B2, “Polycyclic compound acting as IDO inhibitor and/or IDO-HDAC dual inhibitor” (Hangzhou Innogate Pharma Co., Ltd., priority 2017, dated 2022).

Assays:
hIDO1 = target: T1, hIDO1 (Homo sapiens, UniProt P14902); test: IDO inhibition activity based on HEK293T cells transfected with hIDO1 plasmid; format: cell-based; conditions: HEK293T cells transfected with hIDO1, 16 hours incubation, OD 480 nm; read-out: IDO inhibitory activity of HEK293T cells (IC50)
T1 construct: expressed in transfected cells; host or cells: HEK293T (293T) cells, transient transfection with Fugene 6
T1 sequence (P14902 whole entry): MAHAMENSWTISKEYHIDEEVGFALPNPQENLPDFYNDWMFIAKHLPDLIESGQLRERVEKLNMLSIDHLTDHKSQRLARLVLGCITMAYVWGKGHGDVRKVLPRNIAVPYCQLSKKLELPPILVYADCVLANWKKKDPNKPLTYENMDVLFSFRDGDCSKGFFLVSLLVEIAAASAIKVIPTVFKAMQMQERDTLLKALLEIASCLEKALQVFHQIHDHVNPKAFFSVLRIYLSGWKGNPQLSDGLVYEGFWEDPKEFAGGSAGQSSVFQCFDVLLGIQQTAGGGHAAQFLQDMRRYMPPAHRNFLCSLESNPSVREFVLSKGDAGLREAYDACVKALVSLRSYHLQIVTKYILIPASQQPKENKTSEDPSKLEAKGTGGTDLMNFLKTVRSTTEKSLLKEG
Description: 1. Test Method for IDO Inhibition Activity Based on HEK293T Cells:
The first step: cell transfection and plating. 5×10^6 293T cells were separately seeded in two T75 flasks and incubated overnight at 37° C. in a 5% CO2 incubator. […] of a mixture containing 1.5 μg of hIDO1 plasmid and 300 μL of opti-MEM was made into a mixture A; 18 μL of liposome fugene 6 was mixed with 300 μL of opti-MEM to prepare a mixture B, and allowed to stand at room temperature for 5 minutes. Mixture A and Mix B were mixed, placed at room temperature for 20 minutes, added to a 293T culture flask, and the other flask was used as a control and incubated overnight at 37° C. in a 5% CO2 incubator. The medium was discarded, digested with trypsin, and after digestion, the cells were neutralized with serum-containing medium, and the cells were blown to cause the cells to fall off. Pipette the cell suspension into a centrifuge tube and centrifuge at a speed of 800-1000 for 1-3 minutes. Aspirate the cell supernatant from the centrifuge tube. Add an appropriate volume of medium to the tube and gently blister to resuspend the cells. Count using a Vi-Cell XR cytometer. Adjust the cell suspension to the appropriate concentration. The cell suspension was added to a white-well 96-well plate at 80 μL/well. The second step: preparation and addition of the compound. Compounds were formulated in DMSO at 600 μM and the compounds were diluted in DMSO according to a multiple of the following table to give 6 concentration gradients of the compound. The 200× compound prepared in DMSO was formulated into a 10× dilution solution in proportion to the corresponding cell culture medium. Add 10 μL of 10× corresponding compound dilution and 10 μL of 10×TRP to each well, except for Min. Incubate for 16 hours in a 37° C. incubator. The third step: detection and analysis. Cell morphology was observed under an inverted microscope. 80 μL of the supernatant was added to a 3894 plate, and 10 μL of 6.1 N trichloroacetic acid was added to each well, shaken for 2 minutes, and placed in a 50-degree incubator for 30 minutes. Centrifuged at 2500 rpm for 10 minutes. Take 70 μL of the supernatant and transfer to a 3635 UV plate, add 70 μL of the reaction solution, and shake for 2 minutes to make the reaction uniform. Use EnSpire (PE) to detect data with an OD of 480 nm. The cell culture plate 3903 was allowed to stand at room temperature for 30 minutes. 100 μL/well of the cell activity detecting reagent was added to the culture plate. Mix on a shaker for 2 minutes to induce cell lysis. The 96-well plate was allowed to stand at room temperature for 10 minutes to stabilize the luminescence signal. Paste the white base film on the bottom of the plate and the plate was tested in Flexstation 3 (the relevant setting is: Illumination, integration time 500 ms). Record the experimental results obtained from the analysis.
The IC50 value is expressed by: A: IC50 value≤10 nM; B: 10 nM<IC50 value≤50 nM; C: 50 nM<IC50 value≤100 nM; D: IC50 value>100 nM.

IDO = target: T2, IDO (Homo sapiens, UniProt P14902); test: Hela cell-based IDO inhibitory activity test (IFNγ added); conditions: Hela cells with IFNγ, 48 hours incubation, OD 480 nm
T2 construct: endogenous in cells; host or cells: HeLa cells treated with IFNγ
T2 sequence (P14902 whole entry): as above
Description: 2. Hela Cell-Based IDO Inhibitory Activity Test Method
The first step: cell plating. Prepare complete medium and mix well. Cell lines that are in good growth state are selected. Remove the cell culture flask from the incubator and check the cell name, media type and cell generation number on the bottle. The medium was discarded, digested with trypsin, and after digestion, the cells were neutralized with serum-containing medium, and the cells were blown to cause the cells to fall off. Pipette the cell suspension into a centrifuge tube and centrifuge at a speed of 800-1000 for 3-5 minutes. Aspirate the cell supernatant from the centrifuge tube. Add an appropriate volume of medium to the tube and gently blister to resuspend the cells. Count using a Vi-Cell XR cytometer. Adjust the cell suspension to the appropriate concentration. The cell suspension was added to a white-well 96-well plate at 80 μl/well according to the schematic below. The second step: preparation and addition of the compound. Compounds were formulated in DMSO at 600 μM and the compounds were diluted in DMSO according to a multiple of the following table to give 6 concentration gradients of the compound. The 200× compound prepared in DMSO was formulated into a 10× dilution solution in proportion to the corresponding cell culture medium. After 24 hours of cell seeding, 10 μL of 10× corresponding compound dilution and 10 μL of 10×IFNγ were added to each well. Incubate for 48 hours in a 37° C. incubator. The third step: detection and analysis. Cell morphology was observed under an inverted microscope. 80 μL of the supernatant was added to a 3894 plate, 10 μL of 6.1 N trichloroacetic acid was added to each well, shaken for 2 minutes, and placed in a 50-degree incubator for 30 minutes. Centrifuge, 2500 rpm for 10 minutes.
Take 70 μL of the supernatant and transfer to a 3635 UV plate, add 70 μL of the reaction solution, and shake for 2 minutes to make the reaction uniform. Use EnSpire (PE) to detect data with an OD of 480 nm. The cell culture plate 3903 was allowed to stand at room temperature for 30 minutes. 100 μL/well of the cell activity detecting reagent was added to the culture plate. Mix on a shaker for 2 minutes to induce cell lysis. The 96-well plate was allowed to stand at room temperature for 10 minutes to stabilize the luminescence signal. Paste the white base film on the bottom of the plate and tested with Flexstation3 plate (the relevant setting is: Illumination, integration time 500 ms). Record the experimental results obtained from the analysis.
The IC50 value is expressed in the following manner: […]

SMILES: CC(C(=O)Nc1ccc(Cl)cc1)[C@H]1C[C@H]2C[C@@H](c3ccnc4ccc(F)cc34)C[C@H]2C1 (mixture of isomers) [Compound 1]
- IC50 (hIDO1): ≤ 10 nM
- IC50 (IDO): ≤ 5 nM

SMILES: O=C(C[C@@H]1C[C@@H]2C[C@H](c3ccnc4ccc(F)cc34)C[C@@H]2C1)NC1CCC(F)(F)CC1 [Compound 12]
- IC50 (hIDO1): > 100 nM
- IC50 (IDO): 25 to 100 nM

SMILES: CC(C(=O)Nc1ccc(Cl)cc1)C1=C[C@H]2C[C@@H](c3ccnc4ccc(F)cc34)C[C@H]2C1 (stereo partly shown) [Compound 38]
- IC50 (hIDO1): ≤ 10 nM
- IC50 (IDO): ≤ 5 nM

SMILES: O=C(C[C@@H]1C[C@@H]2C[C@H](c3ccnc4ccc(F)cc34)C[C@@H]2C1)Nc1ccc(Cl)cc1 [Compound 2]
- IC50 (hIDO1): 10 to 50 nM
- IC50 (IDO): 5 to 25 nM

SMILES: O=C(C[C@@H]1C[C@H]2CC(c3ccnc4ccc(F)cc34)C[C@H]2C1)Nc1ccc(Cl)nc1 (stereo partly shown) [Compound 22]
- IC50 (hIDO1): 10 to 50 nM
- IC50 (IDO): 5 to 25 nM

SMILES: CC(C(=O)Nc1ccc(Cl)nc1)[C@H]1C[C@H]2C[C@@H](c3ccnc4ccc(F)cc34)C[C@H]2C1 (stereo partly shown) [Compound 27]
- IC50 (hIDO1): 10 to 50 nM
- IC50 (IDO): ≤ 5 nM

SMILES: CC(C(=O)Nc1ccc(Cl)cc1)[C@@H]1C[C@]2(C)C[C@H](c3ccnc4ccc(F)cc34)C[C@]2(C)C1 (stereo partly shown) [Compound 40]
- IC50 (hIDO1): 10 to 50 nM
- IC50 (IDO): ≤ 5 nM

SMILES: O=C(C[C@@H]1C[C@@H]2C[C@@H](Oc3ccnc4ccccc34)C[C@@H]2C1)Nc1ccc(Cl)cc1 [Compound 51]
- IC50 (hIDO1): > 100 nM
- IC50 (IDO): > 100 nM

SMILES: CC(C)(C(=O)Nc1ccc(Cl)cn1)[C@H]1C[C@H]2C[C@@H](c3ccnc4ccc(F)cc34)C[C@H]2C1 [Compound 84]
- IC50 (hIDO1): ≤ 10 nM
- IC50 (IDO): > 100 nM

SMILES: C#Cc1ccc(NC(=O)C(C)[C@H]2C[C@H]3C[C@@H](c4ccnc5ccc(F)cc45)C[C@H]3C2)cc1 (stereo partly shown) [Compound 34]
- IC50 (hIDO1): ≤ 10 nM
- IC50 (IDO): ≤ 5 nM

SMILES: CC(C(=O)Nc1ccc(Cl)cc1)[C@@H]1C[C@H]2C[C@@H](c3ccnc4ccc(F)cc34)C[C@H]2C1 (stereo partly shown) [Compound 4]
- IC50 (hIDO1): 10 to 50 nM
- IC50 (IDO): ≤ 5 nM

SMILES: C[C@@H](C(=O)Nc1ccc(Cl)cc1)[C@H]1C[C@H]2C[C@@H](c3ccnc4ccc(F)cc34)C[C@H]2C1 (single isomer, unassigned) [Compound 1A]
- IC50 (hIDO1): ≤ 10 nM
- IC50 (IDO): ≤ 5 nM

SMILES: N#Cc1ccc(NC(=O)C2([C@@H]3C[C@H]4C[C@@H](c5ccnc6ccc(F)cc56)C[C@H]4C3)CC2)nc1 [Compound 94]
- IC50 (hIDO1): 10 to 50 nM
- IC50 (IDO): ≤ 5 nM

SMILES: O=C(C[C@@H]1C[C@@H]2C[C@@H](c3ccnc4ccc(F)cc34)C(O)[C@@H]2C1)Nc1ccc(Cl)cc1 (stereo partly shown) [Compound 50]
- IC50 (hIDO1): 10 to 50 nM
- IC50 (IDO): 5 to 25 nM

SMILES: COc1ccc(NC(=O)C(C)[C@H]2C[C@H]3C[C@@H](c4ccnc5ccc(F)cc45)C[C@H]3C2)cn1 (stereo partly shown) [Compound 6]
- IC50 (hIDO1): 10 to 50 nM
- IC50 (IDO): 5 to 25 nM

SMILES: CC(C(=O)Nc1ccc(Cl)nc1)[C@@H]1C[C@]2(C)C[C@H](c3ccnc4ccc(F)cc34)C[C@]2(C)C1 (stereo partly shown) [Compound 42]
- IC50 (hIDO1): 10 to 50 nM
- IC50 (IDO): ≤ 5 nM

SMILES: CC#Cc1ccc(NC(=O)C(C)(C)[C@H]2C[C@H]3C[C@@H](c4ccnc5ccc(F)cc45)C[C@H]3C2)nc1 [Compound 90]
- IC50 (hIDO1): ≤ 10 nM
- IC50 (IDO): ≤ 5 nM

SMILES: C#Cc1ccc(NC(=O)C(C)(C)[C@H]2C[C@H]3C[C@@H](c4ccnc5ccc(F)cc45)C[C@H]3C2)nc1 [Compound 86]
- IC50 (hIDO1): ≤ 10 nM
- IC50 (IDO): ≤ 5 nM

SMILES: CC(C(=O)Nc1ccc(C#N)nc1)[C@H]1C[C@H]2C[C@@H](c3ccnc4ccc(F)cc34)C[C@H]2C1 (stereo partly shown) [Compound 72]
- IC50 (hIDO1): ≤ 10 nM
- IC50 (IDO): ≤ 5 nM

SMILES: O=C(Nc1ccc(Cl)cn1)C1([C@H]2C[C@H]3C[C@@H](c4ccnc5ccc(F)cc45)C[C@H]3C2)CC1 [Compound 95]
- IC50 (hIDO1): ≤ 10 nM
- IC50 (IDO): ≤ 5 nM
